The subject of series [1] is SH-SY5Y human neuroblastoma cells. Briefly: LDH cytotoxicity assay (cell viability). It is filed as cell-based. Particulars: 24 h, 0.001–10 µM. Here is the method: (§1) SH-SY5Y human neuroblastoma cell line was obtained from American Type Culture Collection (ATCC), number CRL2266. Cells were cultured in Dulbecco´s modified Eagle´s medium: Nutrient Mix F-12 (DMEM/F-12) with 10% fetal bovine serum (FBS), 1% glutamax, 100 U/mL penicillin and 100 µg/mL streptomycin. Cells were maintained at 37 °C in a humidified atmosphere of 5% CO2 and 95% air and dissociated weekly using 0.05% trypsin/EDTA. All the reagents were obtained from Thermo Fischer Scientific.
Cell viability was assessed with the LDH test. Cells were seeded in 96-well plates and exposed to different compound concentrations (0.001–10 µM). Cells were incubated with compounds at 37 °C in humidified 5% CO2/95% air atmosphere for 24 h. Quillaja bark saponin was used as cellular death control. Then, cell medium was collected and LDH release was evaluated. Pierce^TM LDH-Cytotoxicity Assay Kit (Thermo Fisher Scientific) was used for LDH determination. Absorbance was measured at 490 nm to determine LDH release to the medium. Experiments were carried out in triplicate at least three independent times.

Series [2] has the same test system. Description: MTT cell metabolic activity assay. It is filed as cell-based. The following applies: 24 h, 0.001–10 µM, absorbance 595 nm, three experiments in triplicate. Here is the method: as §1
The effect of laxaphycins on cell metabolic activity was evaluated by MTT (3-(4, 5-dimethyl thiazol-2-yl)-2, 5-diphenyl tetrazolium bromide) assay. SH-SY5Y cells were cultured in 96-well plates and treated with compounds at concentrations ranging from 0.001 to 10 µM for 24 h. Next, cells were rinsed three times and incubated for 1 h with MTT (500 µg/mL) dissolved in saline buffer. MTT excess was washed and cells were disaggregated with 5% sodium dodecyl sulfate. Absorbance of the colored formazan salt was measured at 595 nm in a spectrophotometer plate reader. Cell death control signal was subtracted from the other data.

The test system is the same in series [3]. Description: Annexin V-FITC / propidium iodide flow cytometry. It is filed as cell-based. Particulars: 24 h, 1 at 0.3 µM; for Cell survival (flow cytometry): 2 at 0.15 µM (MTT IC50 values); for Apoptotic cells (early and late, Annexin V positive): 2 at 0.15 µM, STS at 0.01 µM, percentage of total cells, mean ± SEM of three experiments. Here is the method: The Annexin V-FITC Apoptosis Detection Kit was used to determine the cell death produced by compounds as previously described. SH-SY5Y cells were seeded in 12-well plates at 1 × 10^6 per well and incubated for 24 h with laxaphycins. Then, cells were washed with PBS and resuspended in Annexin binding buffer containing Annexin V-FITC and PI. Cells were incubated for 15 min at room temperature, resuspended in PBS and filtered. The fluorescence was determined by flow cytometry using the ImageStreamMKII (Amnis Corporation, Luminex Corp, Austin, TX, USA). 10,000 events were analyzed with IDEAS Application 6.0 software (Amnis Corporation, Luminex Corp, Austin, TX, USA). STS (Sigma Aldrich) at 0.01 µM was used as control in this assay.
For orientation: A flow cytometer gives signals particle by particle.

Series [4] deals with caspase 3. Description: Caspase 3 activity in cell lysates (EnzCheck kit). It is filed as cell-based, human. The following applies: SH-SY5Y cells, 24 h; 1 at 0.3 µM, 2 at 0.15 µM. Here is the method:
The detection of caspase 3 activity was carried out with the EnzCheck® Caspase-3 Assay Kit. Neuroblastoma cells were cultured in 12-well plates at 1 × 10^6 cells per well and treated with compounds. After 24 h, cells were lysed and an aliquot was collected to quantify protein concentration by the Bradford method. Then, the assay was performed following manufacturer’s instructions. Briefly, 50 µL of each sample were mixed with equal volume of Z-DEVD-AMC substrate and incubated for 30 min at room temperature. Then, fluorescence at 342 nm excitation and 441 nm emission was measured. Caspase 3 activity data were corrected by protein concentration values. STS (0.01 µM) was used as positive control.

Series [5] relates to mTOR. Description: Western blot, mTOR activation (phosphorylated/total). It is filed as cell-based, human. Particulars: SH-SY5Y cells, 24 h; Rap 0.1 µM. As for the experimental part:
(§2) SH-SY5Y cells were seeded in 12-well plates and treated with laxaphycins for 24 h. Next, cells were washed with PBS and lysis buffer (50mM Tris HCl, 150 mM NaCl, 1mM EDTA and 1% Triton x-100, supplemented with a complete phosphatase/protease inhibitor cocktail) was added to each well. Cells were scrapped, sonicated and centrifuged at 13,000 rpm at 4 °C for 20 min.
(§3) In both cases, the supernatant was collected as the cytosolic fraction and quantified with the Bradford method. Samples containing 15 µg were used for electrophoresis, resolved in 4–20% sodium dodecyl sulphate polyacrylamide gel (Biorad, Madrid, Spain). Proteins were transferred to PVDF membranes (Merck Millipore) with a Trans-Blot® semi-dry transfer cell (Biorad). Membrane blocking and antibody incubation was performed in Snap i.d. system (Merck Millipore). Protein bands were detected with Supersignal West Pico Luminiscent Substrate and Supersignal West Femto Maximum Sensitivity Substrate (Thermo Fisher Scientific). Chemiluminiscence was determined with Diversity GeneSnap system and software (Syngene). LC3 II/I was detected with the primary antibody anti-LC3 II/I (1:1000, Abcam), the primary antibody anti-pmTOR (Ser2448) (1:1000, Merck Millipore) was used to recognize phospho-mTOR and the total levels of the kinase were determined with anti-mTOR antibody (1:10000, Abcam), beclin-1 was detected with anti-beclin-1 primary antibody (1:1000, Merck Millipore), p62 was quantified with anti-p62 antibody (1:1000, Merck Millipore), anti-phospho-p70 S6 kinase (Thr389) (1:1000, Merck Millipore) was used to detect phospho- p70 and the total levels were quantified using anti-p70 S6 kinase antibody (1:1000, Merck Millipore), anti-phospho-AMPK (Thr172) (1:500, Merck Millipore) was used to recognize the phosphorylated state of the kinase, and the total expression of the enzyme was detected with anti-AMPK antibody (1:500, Merck Millipore). Protein levels were normalized using β-Actin (1:20,000, Millipore). Baf A1 (0.001 µM), Rap (0.1 µM) and Comp C (1 µM) were used as controls for autophagic flux measurements. […]
For orientation: In western blotting, separated proteins are transferred to a membrane and probed.

In series [6] the test system is p70 S6 kinase. Briefly: Western blot, p70 S6 kinase activation (phosphorylated/total). Type of series: cell-based, human. The following applies: SH-SY5Y cells, 24 h; one range given for the three compounds together. As for the experimental part: as §2, §3
Series [7] concerns drug-sensitive and multidrug-resistant tumor cell lines. The arrangement: method as in PMID 17323939. Particulars: previous works; read-out: IC50, toxicity towards drug-sensitive and multidrug-resistant tumor cell lines; cited from earlier work. An excerpt: (§4) Moreover, this study is the first description of the effects on mitochondria and autophagy produced by acyclic B-type laxaphycins, and also confirms that the toxic effects of cyclic laxaphycins B are mediated by an apoptotic process. […] Our results in neuroblastoma cells are in ag ...

Series [8] relates to panel of cancer cell lines. The following applies: read-out: IC50, cytotoxic effects against a panel of cancer cell lines; previous works; cited from earlier work.
Excerpt: as §4

The text below walks through data of publication PMC7404270, “Biological Activities of Cyclic and Acyclic B-Type Laxaphycins in SH-SY5Y Human Neuroblastoma Cells” (Marine Drugs, 2020).

Starred links: 1 amine or outer side, 2 acyl side, 3 side chain; linkers in the order of their positions; H or OH if unused. Non-standard residues stand in square brackets, D forms with d. Residues, ends and D or L forms follow the SMILES beside them. dβ3hGly(nHeptyl) = CCCCCCC[C@H](CC(=O)[*:2])N[*:1]; dAsn(3R-OH) = NC(=O)[C@H](O)[C@@H](N)C(=O)O; dLeu(3S-OH) = CC(C)[C@H](O)[C@@H](N)C(=O)O; Hyp = O=C(O)[C@@H]1C[C@@H](O)CN1; NMeI = CC[C@H](C)[C@H](NC)C(=O)O Some results are limits rather than exact numbers.

A word on the IC50: it is the concentration needed to halve the response being measured.

Turning to `CCCCCCC[C@@H]1CC(=O)N[C@@H](C(C)C)C(=O)N[C@H]([C@@H](O)C(C)C)C(=O)N[C@@H](C)C(=O)N[C@H]([C@@H](O)C(C)C)C(=O)N[C@@H](CCC(N)=O)C(=O)N(C)[C@@H]([C@@H](C)CC)C(=O)N[C@H]([C@@H](O)C(N)=O)C(=O)N[C@@H]([C@@H](C)O)C(=O)N2C[C@H](O)C[C@H]2C(=O)N[C@H](CC(C)C)C(=O)N[C@@H]([C@@H](C)O)C(=O)N1` [compound 2, laxaphycin B3] (cyclo([dβ3hGly(nHeptyl)]V[dLeu(3S-OH)]A[dLeu(3S-OH)]Q[NMeI][dAsn(3R-OH)]T[Hyp][dL]T)), in series [1], the “Cytotoxicity / cell viability (LDH test), in words” value is recorded as “cytotoxic to neuroblastoma cells”. The same molecule returned an IC50 in series [2] of 0.15 µM. Moreover, in series [3], the “Cell survival (flow cytometry)” value is recorded as “around 60 % of control cells”; the “Apoptotic cells (early and late, Annexin V positive)” value is reported as 46.4% ± 4.8%. In series [4], the “Increase in caspase 3 activity” value is on record as “about 20 % of control cells”. Besides, in series [5], the “mTOR activation (phospho/total), in words” value is listed as “did not affect to the protein expression”. Moreover, the “p70 S6 phosphorylation” value in series [6] is 53.5%–78.6%. Also, the IC50 in series [7] is approximately 1 µM.

Take `CCCCCCC[C@@H]1CC(=O)N[C@@H](C(C)C)C(=O)N[C@H]([C@@H](O)C(C)C)C(=O)N[C@@H](C)C(=O)N[C@H]([C@@H](O)C(C)C)C(=O)N[C@@H](CCC(N)=O)C(=O)N(C)[C@@H]([C@@H](C)CC)C(=O)N[C@H]([C@@H](O)C(N)=O)C(=O)N[C@@H]([C@@H](C)O)C(=O)N2CCC[C@H]2C(=O)N[C@H](CC(C)C)C(=O)N[C@@H]([C@@H](C)O)C(=O)N1` [compound 1, laxaphycin B] (cyclo([dβ3hGly(nHeptyl)]V[dLeu(3S-OH)]A[dLeu(3S-OH)]Q[NMeI][dAsn(3R-OH)]TP[dL]T)): the “Cytotoxicity / cell viability (LDH test), in words” value in series [1] is “cytotoxic to neuroblastoma cells”. Moreover, the 50% inhibitory concentration (IC50) in series [2] was 0.3 µM; in series [8], less than 2 µM; in series [7], approximately 1 µM. In series [3], the “Cell survival (flow cytometry)” value is listed as “around 60 % of control cells”. In series [3], the “Apoptotic cells (early and late, Annexin V positive)” value is recorded as 50.4% ± 4.8%. In addition, the “Increase in caspase 3 activity” value in series [4] is given as “about 20 % of control cells”. In addition, the “mTOR activation (phospho/total), in words” value in series [5] was “did not affect to the protein expression”.
